Measurements taken from patent US9999760B2, “DVDMS sensitizer for cancer sonodynamic therapy” (priority 2015, dated 2018).

How the values were obtained:
[1] = system: peripheral blood mononuclear cells, spleen lymphocytes; assay: MTT assay of cytotoxicity in normal cells; assay type: cell-based, ICR mice
Protocol: (§1) Two kinds of leukemia cells (K562, U937) as main tumor cell models and cells (peripheral blood mononuclear cells, spleen lymphocytes) separated from healthy ICR mice as normal cell models were used. The multivolume spectrophotometer system and fluorescence spectrophotometer were used to determine the spectral characteristics of DVDMS. The uptake of DVDMS by tumor cells and normal cells was measured by flow cytometry. The MTT assay was used to examine the cytotoxicity and sonotoxicity of DVDMS.

ECA-109 cells = assay: Sonodynamic therapy in ECA-109 cells; assay type: cell-based
Text: Abundant intracellular reactive oxygen species (ROS) was found in the SDT groups, and the cytotoxicity induced by SDT was effectively remitted by ROS scavengers. […] Release of cytochrome C, an increased rate of apoptosis, and activated apoptosis protein were detected in the SDT group. In addition, relatively severe cell damage was observed on scanning electron microscopy after treatment with DVDMS and SDT.

[2] = Spectral characteristics (absorption and fluorescence emission spectra); assay type: physicochemical
Protocol: as §1

[3] = system: tumor cells (K562, U937) and normal cells; assay: Cellular uptake by flow cytometry in tumor cells and normal cells; assay type: cell-based; conditions: tumor cells compared with normal healthy cells
Protocol: as §1

4T1 mammary cancer = assay: Photodynamic therapy in 4T1 mammary cancer-bearing mice; assay type: in vivo; conditions: for tumor volume inhibition ratio: 17th day
Protocol: At the beginning, we have pointed out that DVDMS is an active component isolated from Photofrin™ II. So it would be very interesting to compare the in vivo anti-cancer efficacy of DVDMS-PDT with PHOTOFRIN™-PDT (PF-PDT).
Representative mice were photographed at 6, 12, or 18 days after the corresponding treatments. […] However, tumor size decreased in a dose-dependent manner with increasing DVDMS and light exposure.
The tumor volume and tumor weight results were evaluated for each group.
On the 19th day, the tumors were photographed and the average tumor weight in each group was calculated.

brain stem tumor = assay: Clinical cases of SDT for tumors of the brain stem; assay type: in vivo, patient
Protocol: Below are two typical clinical cases where SDT was selected for treatment of tumors of the brain stem. For Photofrin™ the dosage was 2 mg/kg of body weight. For DVDMS, the dosage was 0.2 mg/kg of body weight, a factor of ten less than Photofrin™. The ultrasound frequency was 0.5 to 1 MHz and the ultrasound power was 0.1 W/cm^2 to 1.5 W/cm^2. Ultrasound treatment is delayed after injection to permit absorbance of the sonodynamic compound into the tumor or other hyperproliferative tissue. In the case of Photofrin™ the delay is extensive, e.g. 20 to 30 hours. […] Due to differential absorption times into tumor, patient was intravenously injected with Photofrin™ 24 hours before ultrasound treatment and DVDMS was intravenously injected two hours prior to ultrasound treatment. Treatment occurred each time for 20-30 minutes and total time to treat three times was 72 hours.

skin = assay: Dermatological phototoxicity and skin retention after treatment; design: species or system patient; conditions: in vivo
[4] = system: leukemia cells (K562, U937); assay: MTT assay of cytotoxicity and sonotoxicity in leukemia cells; assay type: cell-based
Protocol: as §1

[5] = system: cancerous and normal cells; assay: Autofluorescence intensity and singlet oxygen production in cells; assay type: cell-based; conditions: compared with other photosensitizers / Photofrin
sarcoma 180 solid tumors = assay: Sonodynamic antitumor effect in mice bearing sarcoma 180 solid tumors; assay type: in vivo
Protocol: In order to determine the optimum timing of ultrasound exposure after administration of DVDMS, a three-dimensional optical imaging system (IVIS spectrum) was used to observe the biodistribution of DVDMS in S180 tumor. The antitumor effects were estimated by the tumor inhibition ratio (volume and weight) after sonodynamic therapy. […] A significant synergistic effect of ultrasound combined with DVDMS was obtained when the load power indicated 4 W and DVDMS dose was above 2 mg/kg. […] Conclusions: DVDMS is a potential sensitizer for sonodynamic cancer therapy. The antitumor effect of ultrasound could be enhanced in the presence of DVDMS, which might be involved in a sonochemical mechanism.

C=Cc1c(C)c2cc3nc(cc4[nH]c(cc5nc(cc1[nH]2)C(C)=C5C(C)OC(C)C1=C(C)c2cc5[nH]c(cc6nc(cc7[nH]c(cc1n2)c(C)c7CCC(=O)[O-])C(CCC(=O)[O-])=C6C)c(C)c5C=C)c(C)c4CCC(=O)[O-])C(CCC(=O)[O-])=C3C.[Na+].[Na+].[Na+].[Na+] (stereo not shown) [DVDMS]
cytotoxicity to normal cells [1]: little cytotoxicity
subcellular location (ECA-109 cells): mainly to the mitochondria
SDT cytotoxicity (ECA-109 cells; compared with hematoporphyrin): more cytotoxic
absorption spectra, maximum peak [2]: 359 nm
fluorescence emission [2]: 642 nm
cellular uptake and accumulation [3]: quick cellular uptake and selective accumulation in tumor cells
tumor size versus PF group (4T1 mammary cancer; 2 mg/kg DVDMS vs 10 mg/kg PF, same light exposure 100 J/cm^2): less than in the 10 mg/kg PF group
tumor volume inhibition ratio (4T1 mammary cancer; 1 mg/kg DVDMS+50 J/cm^2, vs control): 38.51%
tumor volume inhibition ratio (4T1 mammary cancer; 2 mg/kg DVDMS alone, vs control): 7.42%
tumor volume inhibition ratio (4T1 mammary cancer; 2 mg/kg DVDMS+50 J/cm^2, vs control): 59.23%
tumor volume inhibition ratio (4T1 mammary cancer; 2 mg/kg DVDMS+100 J/cm^2, vs control): 66.97%
tumor volume inhibition ratio (4T1 mammary cancer; 2 mg/kg DVDMS+150 J/cm^2, vs control): 78.12%
tumor volume inhibition ratio (4T1 mammary cancer; group (2) mg/kg DVDMS+50 J/cm^2 (dose not given), vs control): 18.61%
survival of tumor-bearing mice (4T1 mammary cancer; DVDMS-PDT compared to control and DVDMS-only groups (p<0.01)): significantly prolonged
survival of tumor-bearing mice versus PF-PDT (4T1 mammary cancer; DVDMS-PDT vs PF-PDT (p<0.05)): more effective than PF-PDT
tumor volume and tumor weight (4T1 mammary cancer; nineteen days after treatment, DVDMS plus light exposure vs control or DVDMS alone): significantly lower
time to what appears to be complete remission (brain stem tumor; SDT, 0.2 mg/kg): ≤ 30 days
absorbance into the tumor after injection (brain stem tumor; compared with Photofrin): absorbance is much quicker
efficacy in sonic treatment relative to Photofrin II (brain stem tumor; injected into a host): about ten times higher
cranial MRI on review after SDT treatment (brain stem tumor; patient, 0.2 mg/kg): tumor was absorbed, brain stem edema was significantly reduced
head MRI 30 days after treatment (brain stem tumor; patient, 0.2 mg/kg): ventral brain stem tumor has disappeared
dermatological phototoxicity (skin): lacking dermatological phototoxicity
sonotoxicity: cell-damaging effect of ultrasound in the presence of DVDMS ([4]; MTT, under appropriate conditions): significantly enhanced
cytotoxicity by the MTT method ([4]; without ultrasound): dose dependent
autofluorescence intensity [5]: significantly higher
singlet oxygen production efficiency [5]: significantly higher
tumor weight inhibition ratio (sarcoma 180 solid tumors; DVDMS alone, no ultrasound): 23.15%
biodistribution (IVIS spectrum optical imaging) (sarcoma 180 solid tumors; S180 tumor-bearing mice): preferential localization in tumors, but a low accumulation in most normal tissues
metastasis (sarcoma 180 solid tumors; SDT-treated mice compared with the control group): no metastasis occurred
tumor volume inhibition ratio (sarcoma 180 solid tumors; day 14 after DVDMS-SDT): 56.27%
tumor weight inhibition ratio (sarcoma 180 solid tumors; synergistic treatment (ultrasound combined with DVDMS)): 55.37%
